Literature values, collected in patent US20240115591A1, “THERAPEUTIC METHODS AND COMPOSITIONS FOR TREATING BILIARY TRACT CANCER USING DEVIMISTAT” (Cornerstone Pharmaceuticals, Inc., priority 2020, published 2024).

Tests used:
[1] = tested on: locally advanced or metastatic BTC; conditions: for OS (overall survival): 410 patients with locally advanced or metastatic BTC, phase III ABC-02
[2] = ABC-02, patients with advanced BTC

Nc1ccn([C@@H]2O[C@H](CO)[C@@H](O)C2(F)F)c(=O)n1 [gemcitabine, 2′-deoxy-2′,2′-difluorocytidine (β-isomer)]
OS (overall survival) [1]: 8.1 months

gemcitabine cisplatin
OS (overall survival) [1]: 11.7 months | objective response rate ([1]; ABC-02, combination arm): 26.1% | hazard ratio (HR) for OS ([1]; gemcitabine cisplatin arm versus gemcitabine alone arm, 95% CI 0.52 to 0.80, p<0.001): 0.64 | historical ORR (CR+PR) ([1]; historical estimate from Valle et al. 2010, used as null hypothesis for the planned phase 2): 25% | grade 3 and 4 adverse event: abnormal liver function [2]: 16.7% | grade 3 and 4 adverse event: anemia [2]: 7.6% | grade 3 and 4 adverse event: deep vein thrombosis [2]: 2% | grade 3 and 4 adverse event: fatigue [2]: 18.7% | grade 3 and 4 adverse event: impaired renal function [2]: 1.5% | grade 3 and 4 adverse event: nausea [2]: 4% | grade 3 and 4 adverse event: neutropenia [2]: 25.3% | grade 3 and 4 adverse event: thrombocytopenia [2]: 15.7% | grade 3 and 4 adverse event: thromboembolic event [2]: 3.5% | grade 3 and 4 adverse event: vomiting [2]: 5.1% | grade 3 and 4 adverse event: infection (in vivo): 18.2%
